{
  "source": "paper PMC12430443",
  "about": "“Discovery of Novel Benzamide-Based Sigma-1 Receptor Agonists with Enhanced Selectivity and Safety” (Molecules, 2025)",
  "key": {"[1]": {"molecular_target": "histamine H1 receptor (Homo sapiens, UniProt P35367)", "sequence (P35367 whole entry)": "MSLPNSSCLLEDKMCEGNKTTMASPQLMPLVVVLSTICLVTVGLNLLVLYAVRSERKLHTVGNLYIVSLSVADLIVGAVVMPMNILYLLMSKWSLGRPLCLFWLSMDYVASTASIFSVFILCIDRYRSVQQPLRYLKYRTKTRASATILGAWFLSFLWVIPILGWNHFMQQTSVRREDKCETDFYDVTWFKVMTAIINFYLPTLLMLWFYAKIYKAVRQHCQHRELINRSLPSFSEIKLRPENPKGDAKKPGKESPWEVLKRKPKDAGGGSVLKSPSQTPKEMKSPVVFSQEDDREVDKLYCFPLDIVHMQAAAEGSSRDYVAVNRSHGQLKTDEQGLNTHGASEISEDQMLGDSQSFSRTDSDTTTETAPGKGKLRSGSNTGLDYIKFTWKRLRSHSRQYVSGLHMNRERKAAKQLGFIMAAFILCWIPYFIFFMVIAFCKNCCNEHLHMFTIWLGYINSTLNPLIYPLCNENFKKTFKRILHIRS", "assay": "Off-target panel, aequorin functional assay", "type": "cell-based", "conditions": "10 µM", "experimental": "(§1) Among the synthesized compounds, four derivatives were selected based on their affinity and selectivity profiles. […] The remaining compounds (2, 3, 6, and 7) were assessed for their agonist and antagonist activities across a panel of 58 receptors relevant to CNS disorders, including serotonin, adenosine, adrenergic, cannabinoid, dopamine, histamine, and muscarinic receptors. These assays were conducted at a concentration of 10 µM, in duplicate, utilizing aequorin [19], cAMP HTRF™ [20], and GTPγS binding assays, as detailed in Table 2. […] Specifically, compound 6 antagonized four receptors (5-HT2A, 5-HT2C, α1a, H1), while compound 7 was active against five receptors (5-HT2A, 5-HT3, α1a, H1, M1).\n(§2) Rapidly, the tests were performed by Euroscreen (https://euroscreenfast.com/) with recombinant human G-coupled receptor-expressing cell lines using aequorin functional assays for serotonin 5-HT2A, 5-HT2B, 5-HT2C, 5-HT3, and 5-HT5A, adrenergic α1a and α1b, angiotensin AT1, cholesistokinin CCFK1, endothelin ETA, histamine H1, muscarinic M1 and M3, neurokinin NK1 and NK2, vasopressin V1a, and vasoactive intestinal peptide VPAC1 receptor analysis. Then, cAMP HTRF^TM assays were used to analyze serotonin 5-HT1A, 5-HT4E, 5-HT6, and 5-HT7, adenosine A1, A2A, and A3, adrenergic β1 and β2, cannabinoid CB1, dopamine D1, histamine H2, and neuropeptide Y NPY receptors. GTPγS^35 assays were used to analyze serotonin 5-HT1B, adrenergic α2a and α2b, dopamine D2, muscarinic M2 and M4, opioid δ, κ and µ, and somatostatine SST4 receptors.\n(§3) Agonist and antagonist activities of the test compound are expressed as the percentage of the activity of the reference agonist at its EC100 concentration or the percentage of inhibition of the reference agonist activity at its EC80 concentration, respectively.\n(§4) For the aequorin assays, different cell lines co-expressing the receptors were grown in specific culture media and incubated for 4 h with coelenterazine h. For agonist testing, cell suspensions were mixed with test or reference agonists in a 96-well plate. For antagonist testing, the reference agonist at its EC80 (final concentration) was injected to the mix the containing cells and the tested compound. The resulting emission of light was recorded using the Hamamatsu Functional Drug Screening System 6000 [19]."}, "[2]": {"molecular_target": "serotonin 5-HT3 receptor (Homo sapiens, UniProt P46098)", "sequence (P46098 24-478)": "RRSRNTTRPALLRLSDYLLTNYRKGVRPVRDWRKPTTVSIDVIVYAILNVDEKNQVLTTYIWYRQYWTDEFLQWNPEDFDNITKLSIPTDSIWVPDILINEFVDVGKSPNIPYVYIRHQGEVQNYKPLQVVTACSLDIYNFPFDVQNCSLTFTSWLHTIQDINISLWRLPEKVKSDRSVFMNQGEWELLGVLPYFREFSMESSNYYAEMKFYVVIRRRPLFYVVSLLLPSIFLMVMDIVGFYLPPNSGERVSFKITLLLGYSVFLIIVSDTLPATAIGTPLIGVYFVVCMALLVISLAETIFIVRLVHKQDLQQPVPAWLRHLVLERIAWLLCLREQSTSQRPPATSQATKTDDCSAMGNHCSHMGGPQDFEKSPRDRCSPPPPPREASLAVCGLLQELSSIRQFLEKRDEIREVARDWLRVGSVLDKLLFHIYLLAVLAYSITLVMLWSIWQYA", "assay": "Off-target panel, aequorin functional assay", "type": "cell-based", "conditions": "10 µM, duplicate; % inhibition of reference agonist activity", "experimental": "as §1, §2, §3, §4"}, "[3]": {"molecular_target": "adrenergic α1b receptor (Homo sapiens, UniProt P35368)", "sequence (P35368 whole entry)": "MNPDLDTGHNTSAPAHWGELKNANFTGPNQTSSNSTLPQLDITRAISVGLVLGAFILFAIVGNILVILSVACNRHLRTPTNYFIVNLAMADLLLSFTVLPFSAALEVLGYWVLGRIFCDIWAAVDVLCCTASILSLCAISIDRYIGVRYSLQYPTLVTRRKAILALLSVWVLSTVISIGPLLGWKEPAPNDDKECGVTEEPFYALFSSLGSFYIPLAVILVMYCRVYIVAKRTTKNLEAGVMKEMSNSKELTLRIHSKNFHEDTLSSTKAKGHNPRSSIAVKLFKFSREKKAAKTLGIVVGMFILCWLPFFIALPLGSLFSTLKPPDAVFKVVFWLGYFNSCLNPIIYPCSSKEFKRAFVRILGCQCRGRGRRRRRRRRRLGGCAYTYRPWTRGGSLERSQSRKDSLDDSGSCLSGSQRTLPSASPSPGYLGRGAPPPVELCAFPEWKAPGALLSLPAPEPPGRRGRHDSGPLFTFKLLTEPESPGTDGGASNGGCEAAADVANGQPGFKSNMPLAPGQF", "assay": "Off-target panel, aequorin functional assay", "type": "cell-based", "conditions": "10 µM, duplicate; % inhibition of reference agonist activity", "experimental": "as §1, §2, §3, §4"}, "[4]": {"molecular_target": "adrenergic α1a receptor (Homo sapiens, UniProt P35348)", "sequence (P35348 whole entry)": "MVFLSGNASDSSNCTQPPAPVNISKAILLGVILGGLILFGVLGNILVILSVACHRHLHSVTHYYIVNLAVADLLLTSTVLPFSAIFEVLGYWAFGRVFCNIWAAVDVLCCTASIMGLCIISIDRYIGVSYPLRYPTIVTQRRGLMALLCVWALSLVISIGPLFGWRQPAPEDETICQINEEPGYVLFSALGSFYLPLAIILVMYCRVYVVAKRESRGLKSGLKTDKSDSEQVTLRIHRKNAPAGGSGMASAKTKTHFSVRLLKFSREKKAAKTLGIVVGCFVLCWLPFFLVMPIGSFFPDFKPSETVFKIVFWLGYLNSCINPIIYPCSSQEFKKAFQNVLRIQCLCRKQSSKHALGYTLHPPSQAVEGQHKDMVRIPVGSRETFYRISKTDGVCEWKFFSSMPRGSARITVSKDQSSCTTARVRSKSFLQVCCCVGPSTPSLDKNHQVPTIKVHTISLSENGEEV", "assay": "Off-target panel, aequorin functional assay", "type": "cell-based", "conditions": "10 µM, duplicate; % inhibition of reference agonist activity", "experimental": "as §1, §2, §3, §4"}, "[5]": {"molecular_target": "adrenergic α2b receptor (Homo sapiens, UniProt P18089)", "sequence (P18089 whole entry)": "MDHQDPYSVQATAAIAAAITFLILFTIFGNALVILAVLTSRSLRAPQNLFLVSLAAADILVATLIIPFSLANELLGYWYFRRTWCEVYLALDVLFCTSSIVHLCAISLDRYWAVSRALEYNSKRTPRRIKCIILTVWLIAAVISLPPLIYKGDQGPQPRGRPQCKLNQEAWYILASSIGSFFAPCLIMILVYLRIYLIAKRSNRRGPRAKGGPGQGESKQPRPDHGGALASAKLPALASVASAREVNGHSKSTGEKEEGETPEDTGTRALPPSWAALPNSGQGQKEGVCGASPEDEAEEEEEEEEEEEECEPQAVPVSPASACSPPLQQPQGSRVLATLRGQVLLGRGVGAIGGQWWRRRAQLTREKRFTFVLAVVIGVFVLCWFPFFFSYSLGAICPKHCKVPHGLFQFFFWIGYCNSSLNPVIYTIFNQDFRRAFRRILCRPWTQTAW", "assay": "Off-target panel, GTPγS binding assay", "type": "biochemical", "conditions": "10 µM, duplicate; % inhibition of reference agonist activity", "experimental": "as §1, with “M1). […]” for “M1).”\nas §3\n(§5) For the GTPγS scintillation proximity assay, optimized specific conditions were determined for each receptor. […] were estimated with a PerkinElmer TopCount reader."}, "[6]": {"molecular_target": "adrenergic α2a receptor (Homo sapiens, UniProt P08913)", "sequence (P08913 whole entry)": "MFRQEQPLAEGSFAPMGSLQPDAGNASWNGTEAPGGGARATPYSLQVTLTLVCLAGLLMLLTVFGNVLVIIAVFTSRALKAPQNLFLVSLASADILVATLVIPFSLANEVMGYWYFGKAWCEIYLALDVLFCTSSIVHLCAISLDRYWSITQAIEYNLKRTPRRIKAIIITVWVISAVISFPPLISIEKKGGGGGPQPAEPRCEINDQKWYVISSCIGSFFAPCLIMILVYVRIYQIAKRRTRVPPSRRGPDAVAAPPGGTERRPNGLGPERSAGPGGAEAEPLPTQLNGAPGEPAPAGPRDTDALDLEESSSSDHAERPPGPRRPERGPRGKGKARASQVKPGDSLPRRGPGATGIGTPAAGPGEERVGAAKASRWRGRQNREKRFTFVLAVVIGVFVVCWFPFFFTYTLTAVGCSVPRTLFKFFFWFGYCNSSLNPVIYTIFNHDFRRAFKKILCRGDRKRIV", "assay": "Off-target panel, GTPγS binding assay", "type": "biochemical", "conditions": "10 µM, duplicate; % inhibition of reference agonist activity", "experimental": "as §1, with “M1). […]” for “M1).”\nas §3, §5"}},
  "data": [
    {"smiles": "CN(CCC(=O)NCc1ccc(C#N)cc1)Cc1ccccc1", "note": "[Compound 6, 3-(Benzylmethylamino)-N-(4-cyanobenzyl)propanamide]", "values": [
      {"measurement": "H1 antagonist activity (in words)", "setting": "[1]", "value": "antagonized"}
    ]},
    {"smiles": "CN(CCC(=O)NCc1cccc(Cl)c1)Cc1ccccc1", "note": "[Compound 2, 3-(Benzylmethylamino)-N-(3-chlorobenzyl)propanamide]", "values": [
      {"measurement": "5-HT3 [b] antagonist activity", "setting": "[2]", "value": 68, "unit": "%"},
      {"measurement": "α1b [b] antagonist activity", "setting": "[3]", "value": 70, "unit": "%"},
      {"measurement": "α1a [b] antagonist activity", "setting": "[4]", "value": 64, "unit": "%"},
      {"measurement": "α2b [b] antagonist activity", "setting": "[5]", "value": 59, "unit": "%"},
      {"measurement": "α2a [b] antagonist activity", "setting": "[6]", "value": 61, "unit": "%"}
    ]}
  ]
}
